From PMC10056899, “Neuroprotective and Antiherpetic Properties of Polyphenolic Compounds from Maackia amurensis Heartwood” (Molecules, 2023)

Key:
[1] = DPPH radical scavenging assay; conditions: 20 min; for IC50: read-out: DPPH Scavenging Effect IC50
Protocol: The DPPH (2,2-diphenyl-1-picrylhydrazyl) scavenging effect of polyphenolic compounds 1-6 from M. amurensis heartwood was evaluated as described previously in [40]. Stilbenes were added to DPPH solution in MeOH (10^−4 M) at a concentration range from 1 to 34 µM. The mixture was kept in the dark at room temperature for 20 min. Then, we measured the absorbance at 517 nm using a Shimadzu UV 1240 spectrophotometer (Shimadzu, Kyoto, Japan). The DPPH radical-scavenging effect (%) of the stilbenes was calculated using Equation (1): (1) DPPH scavenging effect, %=A0−Ax/A0×100, where: • A0 is the absorbance of DPPH solution without polyphenolic compounds (blank sample); • Ax is the absorbance of DPPH solution in the presence of different concentrations of polyphenolic compounds.
Quercetin and ascorbic acid were used as reference compounds. All experiments were performed in triplicate. The half maximal inhibitory concentration (IC50) for polyphenolic compounds was calculated by plotting the DPPH scavenging effect (%) against the concentrations of polyphenolic compounds. IC50 values are given as the mean ± SEM.

[2] = Ferric reducing antioxidant power (FRAP) assay; conditions: 4 min, pH 3.6
Protocol: The FRAP assay was carried out as described in [41]. We prepared FRAP reagent by mixing 2.5 mL of TPTZ (2,4,6-tris(2-pyridyl)-s-triazine) solution (10 mM) in 40 mM HCl and […] of FeCl3 solution (20 mM) in acetate buffer solution (300 mM, pH 3.6). Then, we added stilbenes 1–6 to 3 mL of FRAP reagent at concentrations from 1 to 34 µM. The mixture was kept in the dark at room temperature for 4 min. Then, we measured the absorbance at 595 nm using a Shimadzu UV 1240 spectrophotometer. Equation (2) was used to calculate the FRAP values of stilbenes 1–6:(2) FRAP=CFe/Cx, where: • CFe is the concentration of Fe^2+ (µM) formed in the reaction; • Cx is the concentration of polyphenolic compounds in the reacting mixture.
The concentration of Fe^2+ (µM) formed in the reaction was determined using the calibration curve obtained for different concentrations of FeSO4·7H2O.

DPPH Scavenging Effect IC50 [1] [µg]	IC50 [1] [µM]	Compound	FRAP CFe2+(µM)/Cpolyphenolic compound (µM) [2]	FRAP CFe2+(µM)/Cpolyphenolic compound (μkg/mL) [2]
5.83 ± 0.49	33.1 ± 2.8	O=C1O[C@H]([C@@H](O)CO)C(O)=C1O [Ascorbic acid, reference compound]	3.58 ± 0.29 CFe2+(µM)/Cpolyphenolic compound (µM)	20.34 ± 0.16 CFe2+(µM)/Cpolyphenolic compound (μkg/mL)
2.81 ± 0.12	9.3 ± 0.4	O=c1c(O)c(-c2ccc(O)c(O)c2)oc2cc(O)cc(O)c12 [Quercetin, reference compound]	5.53 ± 0.55 CFe2+(µM)/Cpolyphenolic compound (µM)	18.3 ± 1.82 CFe2+(µM)/Cpolyphenolic compound (μkg/mL)
